Measured values published in US11999676B2, “Vesicular monoamine transporter-2 ligands and their use in the treatment of psychostimulant abuse” (priority 2016, dated 2024).
Like-named read-outs stand apart in the source and are kept apart here.

What was measured:
VMAT2 [1] = biological target: T1, VMAT2 (Rattus norvegicus (Rat), UniProt Q01827); conditions: rat brain synaptic vesicles; read-out: [3H]DTBZ binding (Ki) VMAT2
VMAT2 [2] = biological target: T1, VMAT2; experiment: [3H]Dopamine ([3H]DA) uptake assay, vesicular preparation; assay type: biochemical
[3] = Microsomal stability assay, human liver microsomes; conditions: for CLint scaled at 0.08 µM / half-life at 0.08 µM: both, human, pooled liver microsomes; for CLint scaled at 0.08 µM: pH 7.4, Microsomal stability assays: Clearance; for half-life at 0.08 µM: pH 7.4, Microsomal stability assays: Half-life
hERG channel = hERG channel (Homo sapiens (Human), UniProt Q12809); experiment: [3H]Dofetilide binding assay, HEK-293 cell membrane preparation; conditions: [3H]dofetilide, HEK-293 cell membranes; read-out: hERG Binding: Mean Ki ± Standard Deviation
Chain of hERG channel (Q12809 whole entry): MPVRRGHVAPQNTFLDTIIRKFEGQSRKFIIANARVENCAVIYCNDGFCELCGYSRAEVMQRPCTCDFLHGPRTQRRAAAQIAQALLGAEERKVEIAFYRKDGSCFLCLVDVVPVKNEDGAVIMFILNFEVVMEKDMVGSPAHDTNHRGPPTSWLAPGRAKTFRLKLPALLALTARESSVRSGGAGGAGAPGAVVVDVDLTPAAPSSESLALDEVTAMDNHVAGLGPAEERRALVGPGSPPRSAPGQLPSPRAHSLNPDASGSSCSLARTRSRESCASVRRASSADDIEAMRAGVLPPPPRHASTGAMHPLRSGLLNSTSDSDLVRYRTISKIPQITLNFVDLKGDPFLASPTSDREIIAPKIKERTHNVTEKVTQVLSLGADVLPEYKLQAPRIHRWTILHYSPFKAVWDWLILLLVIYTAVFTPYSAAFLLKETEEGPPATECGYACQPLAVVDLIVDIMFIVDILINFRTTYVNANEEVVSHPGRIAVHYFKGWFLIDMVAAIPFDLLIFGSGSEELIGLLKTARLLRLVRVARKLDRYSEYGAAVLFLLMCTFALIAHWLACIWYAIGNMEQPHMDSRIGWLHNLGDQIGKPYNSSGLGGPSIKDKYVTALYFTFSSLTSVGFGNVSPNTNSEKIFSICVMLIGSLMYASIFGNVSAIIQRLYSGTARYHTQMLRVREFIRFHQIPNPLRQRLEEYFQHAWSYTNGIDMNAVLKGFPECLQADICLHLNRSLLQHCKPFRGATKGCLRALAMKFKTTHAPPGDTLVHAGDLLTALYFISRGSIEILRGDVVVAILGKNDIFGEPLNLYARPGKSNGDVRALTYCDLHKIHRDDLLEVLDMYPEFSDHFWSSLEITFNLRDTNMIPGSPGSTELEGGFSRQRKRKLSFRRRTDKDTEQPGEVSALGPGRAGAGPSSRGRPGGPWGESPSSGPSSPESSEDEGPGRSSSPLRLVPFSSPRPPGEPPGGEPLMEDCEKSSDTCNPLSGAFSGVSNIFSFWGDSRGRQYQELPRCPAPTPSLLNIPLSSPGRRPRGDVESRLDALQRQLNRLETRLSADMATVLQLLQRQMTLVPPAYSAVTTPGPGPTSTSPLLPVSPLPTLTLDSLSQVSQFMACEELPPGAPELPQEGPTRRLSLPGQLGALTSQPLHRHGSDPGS
Method: [^3H]Dofetilide binding assays were conducted using commercially available HEK-293 cell membranes which stably express the hERG channel. Membranes were suspended in assay buffer (50 mM Tris, 10 mM KCl, 1 mM MgCl2, pH 7.4) prior to the experiment. […] Aliquots of the HEK-293 cell membrane suspension which contained 5 μg membrane protein were added to tubes containing assay buffer, 5 nM [^3H]dofetilide and a range of concentrations of analog (10 nM-100 μM). Nonspecific binding was determined in the presence of amitriptyline (1 mM). Samples were incubated for 1 hr. at 24° C., followed by rapid filtration. […] The affinity for the [^3H]dofetilide binding site on the hERG channel expressed in the HEK-293 cellular membrane was determined from the analog concentration response curves.

[4] = rat striatal synaptic vesicles, read-out: [3H]DA uptake (Ki) VMAT2
[5] = [3H]DA uptake, rat, read-out: VMAT2 (rat) Inhibition: Mean Ki ± Standard Deviation

Question: What does the source list for `CC(Cc1ccccc1)NCCc1ccccc1` (centres unmarked) [Compound 1]?
Answer: Ki (VMAT2 [1]): 7.7 ± 1.25 µM; Ki (VMAT2 [2]; [4]): 0.063 ± 0.005 µM

Question: For `CC(Cc1ccccc1)N(C)CCc1ccccc1` (centres unmarked) [Compound 2], which Ki (VMAT2 [1]) is on record?
Answer: 7.53 ± 2.16 µM

Question: What about the Ki (VMAT2 [2]; [4]) of the same compound?
Answer: 0.51 ± 0.1 µM

Question: For `CC(Cc1ccc(Br)cc1)NCCc1ccccc1` (centres unmarked) [Compound 3], which Ki (VMAT2 [1]) is on record?
Answer: 1.23 ± 0.13 µM

Question: What about the Ki (VMAT2 [2]; [4]) of the same compound?
Answer: 0.033 ± 0.007 µM

Question: Which results are given for `CC(Cc1ccccc1)NCCCc1ccccc1` (centres unmarked) [Compound 4]?
Answer: Ki (VMAT2 [1]): 1.13 ± 0.31 µM; Ki (VMAT2 [2]; [4]): 0.007 ± 0.002 µM

Question: Which Ki (VMAT2 [1]) does the source give for `C[C@H](Cc1ccccc1)NCCCc1ccccc1` [Compound 5] here?
Answer: 0.91 ± 0.59 µM

Question: And the Ki (VMAT2 [2]; [4])?
Answer: 0.006 ± 0.001 µM

Question: Which Ki (VMAT2 [1]) does the source give for `C[C@@H](Cc1ccccc1)NCCCc1ccccc1` [Compound 6] here?
Answer: 0.75 ± 0.14 µM

Question: What about the Ki (VMAT2 [2]; [4]) of the same compound?
Answer: 0.065 ± 0.004 µM

Question: What does the source list for `CC(Cc1ccccc1)N(C)CCCc1ccccc1` (centres unmarked) [Compound 7]?
Answer: Ki (VMAT2 [1]): 1.56 ± 0.47 µM; Ki (VMAT2 [2]; [4]): 0.096 ± 0.01 µM

Question: What does the source list for `COc1ccc(CCCNC(C)Cc2ccccc2)cc1` (centres unmarked) [Compound 8]?
Answer: Ki (VMAT2 [1]): 2.2 ± 0.11 µM; Ki (VMAT2 [2]; [4]): 0.014 ± 0.003 µM

Question: What does the source list for `CC(Cc1ccc(Br)cc1)NCCCc1ccccc1` (centres unmarked) [Compound 11]?
Answer: Ki (VMAT2 [1]): 0.7 ± 0.063 µM; Ki (VMAT2 [2]; [4]): 0.008 ± 0.001 µM

Question: With `CC(Cc1ccc(Br)cc1)NCCCCc1ccccc1` (centres unmarked) [Compound 14] as the compound, how does the Ki (VMAT2 [1]) read?
Answer: 0.081 ± 0.016 µM

Question: And the Ki (VMAT2 [2]; [4])?
Answer: 0.003 ± 0.0003 µM

Question: For `CC(Cc1ccccc1)NCCCCc1ccccc1` (centres unmarked) [Compound 15], which Ki (VMAT2 [1]) is on record?
Answer: 0.19 ± 0.02 µM

Question: And the Ki (VMAT2 [2]; [4])?
Answer: 0.003 ± 0.002 µM

Question: What does the source list for `COc1ccc(CCCNC(C)Cc2ccc(Br)cc2)cc1` (centres unmarked) [Compound 16]?
Answer: Ki (VMAT2 [1]): 0.46 ± 0.08 µM; Ki (VMAT2 [2]; [4]): 0.012 ± 0.003 µM

Question: Which Ki (VMAT2 [1]) does the source give for `CC(Cc1ccccc1)NCCCCCc1ccccc1` (centres unmarked) [Compound 17] here?
Answer: 0.63 µM

Question: And the Ki (VMAT2 [2]; [4])?
Answer: 0.014 ± 0.001 µM

Question: Which Ki (VMAT2 [1]) does the source give for `CC(Cc1ccccc1)NCCOc1ccccc1` (centres unmarked) [Compound 19] here?
Answer: 4.1 ± 0.3 µM

Question: And the Ki (VMAT2 [2]; [4])?
Answer: 0.059 ± 0.007 µM

Question: For `CC(Cc1ccc(Br)cc1)NCCOc1ccccc1` (centres unmarked) [Compound 20], which Ki (VMAT2 [1]) is on record?
Answer: 2 ± 0.1 µM

Question: What about the Ki (VMAT2 [2]; [4]) of the same compound?
Answer: 0.013 ± 0.009 µM

Question: For `CC(Cc1ccccc1)NCCc1ccc(O)cc1` (centres unmarked) [Compound 21], which Ki (VMAT2 [1]) is on record?
Answer: 1.5 ± 0.2 µM

Question: What about the Ki (VMAT2 [2]; [4]) of the same compound?
Answer: 0.12 ± 0.01 µM

Question: Which Ki (VMAT2 [1]) does the source give for `CC(Cc1ccccc1)NCCc1ccc(OCc2ccccc2)c(OCc2ccccc2)c1` (centres unmarked) [Compound 22] here?
Answer: 2 ± 0.1 µM

Question: What about the Ki (VMAT2 [2]; [4]) of the same compound?
Answer: 0.12 ± 0.001 µM

Question: For `CC(Cc1ccccc1)NCCc1ccc(O)c(O)c1` (centres unmarked) [Compound 23], which Ki (VMAT2 [1]) is on record?
Answer: 3.4 ± 0.6 µM

Question: What about the Ki (VMAT2 [2]; [4]) of the same compound?
Answer: 0.092 ± 0.017 µM

Question: Which Ki (VMAT2 [1]) does the source give for `COc1ccc(CC(C)NCCc2ccccc2)cc1` (centres unmarked) [Compound 24] here?
Answer: 3.77 ± 0.99 µM

Question: And the Ki (VMAT2 [2]; [4])?
Answer: 0.074 ± 0.002 µM

Question: For `COc1ccc(CC(C)N(C)CCc2ccccc2)cc1` (centres unmarked) [Compound 25], which Ki (VMAT2 [1]) is on record?
Answer: 11.9 ± 1.84 µM

Question: What about the Ki (VMAT2 [2]; [4]) of the same compound?
Answer: 0.46 ± 0.075 µM

Question: What does the source list for `COc1ccc(CC(C)NCCCc2ccccc2)cc1` (centres unmarked) [Compound 26]?
Answer: Ki (VMAT2 [1]): 1.27 ± 0.09 µM; Ki (VMAT2 [2]; [4]): 0.022 ± 0.003 µM

Question: With `COc1ccc(CCCNC(C)Cc2ccc(OC)cc2)cc1` (centres unmarked) [Compound 29] as the compound, how does the Ki (VMAT2 [1]) read?
Answer: 0.41 ± 0.14 µM

Question: And the Ki (VMAT2 [2]; [4])?
Answer: 0.011 ± 0.002 µM

Question: Which CLint scaled at 0.08 µM [3] does the source give for `CC(Cc1ccc(F)cc1)NCCCc1ccc(NC=O)cc1` (centres unmarked) [Compound 70] here?
Answer: 23 mL/min/kg

Question: What about the half-life at 0.08 µM [3] of the same compound?
Answer: 54 min

Question: And the Ki (hERG channel)?
Answer: 2.6 ± 0.711 µM

Question: And the Ki (VMAT2 [2]; [5])?
Answer: 0.0225 ± 0.00448 µM

Question: For `CC(Cc1ccc(NC=O)cc1)NCCCc1ccccc1` (centres unmarked) [Compound 77], which CLint scaled at 0.08 µM [3] is on record?
Answer: 11.2 mL/min/kg

Question: And the half-life at 0.08 µM [3]?
Answer: 114 min

Question: And the Ki (hERG channel)?
Answer: 1.76 ± 0.63 µM

Question: What about the Ki (VMAT2 [2]; [5]) of the same compound?
Answer: 0.021 ± 0.0011 µM

Question: For `CC(Cc1ccc(NC=O)cc1)NCCCc1ccc(F)cc1` (centres unmarked) [Compound 88], which CLint scaled at 0.08 µM [3] is on record?
Answer: 13.4 mL/min/kg

Question: And the half-life at 0.08 µM [3]?
Answer: 96 min

Question: What about the Ki (hERG channel) of the same compound?
Answer: 0.738 ± 0.244 µM

Question: And the Ki (VMAT2 [2]; [5])?
Answer: 0.0127 ± 0.00285 µM

Question: For `CC(Cc1ccc(NC=O)cc1)NCCCc1ccc(F)cc1` (centres unmarked) [Compound 89], which “Microsomal stability assays: Clearance” value [3] is on record?
Answer: 14 mL/min/kg

Question: And the “Microsomal stability assays: Half-life” value [3]?
Answer: 90 min

Question: What about the Ki (hERG channel) of the same compound?
Answer: 0.738 ± 0.244 µM

Question: And the Ki (VMAT2 [2]; [5])?
Answer: 0.0127 ± 0.00285 µM

Question: Which CLint scaled at 0.08 µM [3] does the source give for `CC(Cc1ccc(N)cc1)NCCCc1ccccc1` (centres unmarked) [Compound 105] here?
Answer: 29.6 mL/min/kg

Question: What about the half-life at 0.08 µM [3] of the same compound?
Answer: 42 min

Question: And the Ki (hERG channel)?
Answer: 4.61 ± 1.01 µM

Question: And the Ki (VMAT2 [2]; [5])?
Answer: 0.0268 ± 0.00649 µM

Question: Which results are given for `CC(Cc1ccc(N)cc1)NCCCc1ccc(F)cc1` (centres unmarked) [Compound 109]?
Answer: CLint scaled at 0.08 µM [3]: 25.2 mL/min/kg; half-life at 0.08 µM [3]: 48 min; Ki (hERG channel): 2.59 ± 0.792 µM; Ki (VMAT2 [2]; [5]): 0.0192 ± 0.00443 µM
